Results on 37 compounds are retold here after patent US11773127B2, “Compounds and methods for treating bacterial infections” (Washington University, priority 2017, dated 2023).

Each structure is given as a SMILES string. Read-outs that look alike come from different tables or passages of the source.

In the assay the target is T1, FmlHLD (Escherichia coli, UniProt P77588).
T1 construct: 6xHis (C); made in house; host or cells: E. coli C600, periplasm, pTRC99a
As to the kind of experiment: biochemical. Format: binding, E. coli. To be noted: for PI100 (percent inhibition): galactoside at 100 μM. The gist of the method: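 Sialidase-treated bovine submaxillary mucin (ds-BSM) coated wells, BSA-blocked, then biotinylated FmlH^LD (20 μg/mL) with or without compound for 1 h at room temperature. Bound lectin detected by streptavidin-HRP/TMB, A450.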

[1] abbreviates: mean with standard error of the mean, 100 µM.
Setting [2] is: read-out: PI10 (percent inhibition), galactoside at 10 μM, mean with standard error of the mean.
The mark [3] stands for this setting: read-out: PI100 (percent inhibition), galactoside at 100 μM, mean with standard error of the mean.
The mark [4] stands for this setting: read-out: PI1 (percent inhibition), galactoside at 1 μM, mean with standard error of the mean.
Where [5] appears, read: mean with standard error of the mean.
Setting [6] is: read-out: % Inhibition at [μM] [100], compound at 100 μM, inhibition of FmlHLD binding to ds-BSM.
Where [7] appears, read: read-out: % Inhibition at [μM] [1], compound at 1 μM, inhibition of FmlHLD binding to ds-BSM.
[8] abbreviates: read-out: % Inhibition at [μM] [10], compound at 10 μM, inhibition of FmlHLD binding to ds-BSM.

T1 sequence (P77588 25-182): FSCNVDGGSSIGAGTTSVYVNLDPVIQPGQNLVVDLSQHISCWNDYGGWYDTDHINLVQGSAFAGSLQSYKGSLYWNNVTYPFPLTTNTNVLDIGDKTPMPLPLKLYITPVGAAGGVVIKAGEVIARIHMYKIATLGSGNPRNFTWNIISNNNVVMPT

One may read the inhibition as the relative decrease from the control value, in per cent. On to `COc1cc(OC)cc(O[C@@H]2O[C@H](CO)[C@H](O)[C@H](O)[C@H]2O)c1` [Compound 7β, 3,5-dimethoxyphenyl β-D-galactopyranoside], for which the “PI100 (percent inhibition)” value under setting [1] stood at 76.4 ± 2.4%. Under setting [2], the inhibition at 10 µM came to 11.7 ± 2.7%. Moreover, under setting [3], the inhibition at 100 µM is 76%.

In the case of `Cc1ccc(O[C@@H]2O[C@H](CO)[C@H](O)[C@H](O)[C@H]2O)cc1` [Compound 8β, 4-methylphenyl β-D-galactopyranoside], the “PI100 (percent inhibition)” value under setting [1] came out at 85.8 ± 0.7%. Further, under setting [4], the inhibition at 1 µM is 4.6 ± 7.9%. Under setting [2], the inhibition at 10 µM was 16.5 ± 3.3%. For the same compound, under setting [3], the inhibition at 100 µM worked out at 86%.

For the compound `N#Cc1ccc(O[C@@H]2O[C@H](CO)[C@H](O)[C@H](O)[C@H]2O)cc1` [Compound 9β, 4-cyanophenyl β-D-galactopyranoside], the “PI100 (percent inhibition)” value under setting [1] came to 85.7 ± 1.6%. For the same compound, under setting [4], the inhibition at 1 µM is 9.5 ± 3.7%. Under setting [2], the inhibition at 10 µM is 19.2 ± 4.8%. Besides, under setting [3], the inhibition at 100 µM amounted to 86%.

Regarding `Nc1ccc(O[C@@H]2O[C@H](CO)[C@H](O)[C@H](O)[C@H]2O)cc1` [Compound 10β], the “PI100 (percent inhibition)” value under setting [1] came to 65.1 ± 1.4%. In addition, the inhibition at 10 µM under setting [2] stood at 9.8 ± 3.9%. The inhibition at 100 µM under setting [3] is 65%.

With `Cc1cc(=O)oc2cc(O[C@@H]3O[C@H](CO)[C@H](O)[C@H](O)[C@H]3O)ccc12` [Compound 12β], the “PI100 (percent inhibition)” value under setting [1] is listed as 85.3 ± 0.7%. For the same compound, the inhibition at 1 µM under setting [4] worked out at 8.7 ± 3.1%. Besides, under setting [2], the inhibition at 10 µM was 19.7 ± 4.2%. In addition, the inhibition at 100 µM under setting [3] came out at 85%.

As for `Cc1cc(=O)oc2c(F)c(O[C@@H]3O[C@H](CO)[C@H](O)[C@H](O)[C@H]3O)c(F)cc12` [Compound 13β], under setting [1], the “PI100 (percent inhibition)” value was 49.7 ± 4.5%. Besides, under setting [2], the inhibition at 10 µM turned out to be 0.8 ± 3.1%. The inhibition at 100 µM under setting [3] stood at 50%.

As to `Cc1c(C)c2ccc(O[C@@H]3O[C@H](CO)[C@H](O)[C@H](O)[C@H]3O)cc2oc1=O` [Compound 14β], under setting [1], the “PI100 (percent inhibition)” value amounted to 89.2 ± 0.4%. For the same compound, under setting [4], the inhibition at 1 µM came to 10.2 ± 4.3%. Also, under setting [2], the inhibition at 10 µM was 19.8 ± 3.8%. For the same compound, the inhibition at 100 µM under setting [3] was 89%.

As to `O=c1ccc2nc3ccc(O[C@@H]4O[C@H](CO)[C@H](O)[C@H](O)[C@H]4O)cc3oc-2c1` [Compound 15β, Resorufin galactoside], under setting [1], the “PI100 (percent inhibition)” value stood at 80.4 ± 6.6%. For the same compound, the inhibition at 10 µM under setting [2] stood at 24 ± 3.2%. The inhibition at 100 µM under setting [3] was 80%.

In the case of `OC[C@H]1O[C@@H](Oc2c[nH]c3ccccc23)[C@H](O)[C@@H](O)[C@H]1O` [Compound 16β], the “PI100 (percent inhibition)” value under setting [1] is recorded as 21.7 ± 2.4%. Also, the inhibition at 100 µM under setting [3] is 22%.

On to `OC[C@H]1O[C@@H](Oc2c[nH]c3cc(Cl)ccc23)[C@H](O)[C@@H](O)[C@H]1O` [Compound 17β], for which the “PI100 (percent inhibition)” value under setting [1] amounted to 41.2 ± 3.4%. Also, the inhibition at 100 µM under setting [3] came to 41%.

On to `OC[C@H]1O[C@H](Oc2cccc3ccccc23)[C@H](O)[C@@H](O)[C@H]1O` [Compound 18α, 1-naphthalenyl α/β-D-galactopyranoside], for which the inhibition at 100 µM under setting [3] came to 28.1 ± 3.4%.

With `OC[C@H]1O[C@@H](Oc2cccc3ccccc23)[C@H](O)[C@@H](O)[C@H]1O` [Compound 18β, 1-naphthalenyl α/β-D-galactopyranoside], under setting [1], the “PI100 (percent inhibition)” value was 45.9 ± 3.7%. Further, the inhibition at 100 µM under setting [3] stood at 46%.

In the case of `OC[C@H]1O[C@@H](Oc2ccc3ccccc3c2)[C@H](O)[C@@H](O)[C@H]1O` [Compound 19β], the “PI100 (percent inhibition)” value under setting [1] amounted to 78.8 ± 2.1%. The inhibition at 10 µM under setting [2] was found to be 14.6 ± 3.1%. The inhibition at 100 µM under setting [3] was determined as 79%.

Regarding `OC[C@H]1O[C@@H](Oc2cccc3ccncc23)[C@H](O)[C@@H](O)[C@H]1O` [Compound 21β, 8-isoquinolinyl β-D-galactopyranoside], the “PI100 (percent inhibition)” value under setting [1] stood at 15.2 ± 7.1%. In addition, the inhibition at 100 µM under setting [3] was found to be 15%.

With `OC[C@H]1O[C@@H](SCCc2ccccc2)[C@H](O)[C@@H](O)[C@H]1O` [Compound 22β-thio], under setting [2], the inhibition at 10 µM came to 2.3 ± 2.5%. The inhibition at 100 µM under setting [3] worked out at 49.8 ± 2.5%.

With `OC[C@H]1O[C@H](Oc2ccccc2-c2ccccc2)[C@H](O)[C@@H](O)[C@H]1O` [Compound 28α, [1,1′-biphenyl]-2-yl α/β-D-galactopyranoside], under setting [3], the inhibition at 100 µM was 19.2 ± 3%.

Consider `OC[C@H]1O[C@@H](Oc2ccccc2-c2ccccc2)[C@H](O)[C@@H](O)[C@H]1O` [Compound 28β, [1,1′-biphenyl]-2-yl α/β-D-galactopyranoside], for which the “PI100 (percent inhibition)” value under setting [1] amounted to 91.1 ± 1.2%. The inhibition at 1 µM under setting [4] was determined as 8.1 ± 6%. The inhibition at 10 µM under setting [2] turned out to be 31 ± 2.1%. Under setting [3], the inhibition at 100 µM is 91%.

On to `O=C(O)c1cccc(-c2ccccc2O[C@H]2O[C@H](CO)[C@H](O)[C@H](O)[C@H]2O)c1` [Compound 29α, 2′-(α/β-D-galactopyranosyloxy)-[1,1′-Biphenyl]-3-carboxylic acid], for which the inhibition at 100 µM under setting [3] was 26.2 ± 5.9%.

As for `COC(=O)c1cccc(-c2ccccc2O[C@H]2O[C@H](CO)[C@H](O)[C@H](O)[C@H]2O)c1` [Compound 30α, 2′-(α/β-D-galactopyranosyloxy)-[1,1′-Biphenyl]-3-carboxylic acid methyl ester], the inhibition at 100 µM under setting [3] was 13.1 ± 7.6%.

As for `COC(=O)c1cccc(-c2ccccc2O[C@@H]2O[C@H](CO)[C@H](O)[C@H](O)[C@H]2O)c1` [Compound 30β, 2′-(α/β-D-galactopyranosyloxy)-[1,1′-Biphenyl]-3-carboxylic acid methyl ester], under setting [1], the “PI100 (percent inhibition)” value is recorded as 86.6 ± 0.8%. Further, the inhibition at 1 µM under setting [4] was 3.7 ± 3.5%. Besides, the inhibition at 10 µM under setting [2] turned out to be 22.4 ± 2.6%. For the same compound, the inhibition at 100 µM under setting [3] is 87%.

With `OC[C@H]1O[C@H](Oc2cccc(-c3ccccc3)c2)[C@H](O)[C@@H](O)[C@H]1O` [Compound 31α, [1,1′-biphenyl]-3-yl α/β-D-galactopyranoside], the inhibition at 100 µM under setting [3] turned out to be 45.6 ± 2.5%.

In the case of `OC[C@H]1O[C@@H](Oc2cccc(-c3ccccc3)c2)[C@H](O)[C@@H](O)[C@H]1O` [Compound 31β, [1,1′-biphenyl]-3-yl α/β-D-galactopyranoside], under setting [1], the “PI100 (percent inhibition)” value is 56.9 ± 6.2%. Moreover, the inhibition at 10 µM under setting [2] is 7.8 ± 5.5%. In addition, the inhibition at 100 µM under setting [3] came out at 57%.

As to `OC[C@H]1O[C@H](Oc2ccc(-c3ccccc3)cc2)[C@H](O)[C@@H](O)[C@H]1O` [Compound 32α, [1,1′-biphenyl]-4-yl α/β-D-galactopyranoside], the inhibition at 10 µM under setting [2] stood at 22.6 ± 3.9%. Moreover, under setting [3], the inhibition at 100 µM turned out to be 86.5 ± 1.7%.

As to `OC[C@H]1O[C@@H](Oc2ccc(-c3ccccc3)cc2)[C@H](O)[C@@H](O)[C@H]1O` [Compound 32β, [1,1′-biphenyl]-4-yl α/β-D-galactopyranoside], the inhibition at 100 µM under setting [3] was 30%.

Take `CC(=O)N[C@H]1[C@@H](Oc2ccc([N+](=O)[O-])cc2)O[C@H](CO)[C@H](O)[C@@H]1O[C@@H]1O[C@H](CO)[C@H](O)[C@H](O)[C@H]1O` [Compound 33, p-nitrophenyl Gal-β1-3-GalNAc, reference compound]: the “PI100 (percent inhibition)” value under setting [5] was found to be 15.3 ± 3.1%.

Turning to `CC(=O)N[C@H]1[C@H](Oc2ccc([N+](=O)[O-])cc2)O[C@H](CO)[C@@H](O)[C@@H]1O[C@@H]1O[C@H](CO)[C@H](O)[C@H](O)[C@H]1O` [Compound 34, p-nitrophenyl Gal-β1-3-GlcNAc, reference compound], the “PI100 (percent inhibition)” value under setting [5] is −3.6 ± 1.0%.

Consider `O=[N+]([O-])c1ccc(O[C@@H]2O[C@H](CO[C@@H]3O[C@H](CO)[C@H](O)[C@H](O)[C@H]3O)[C@H](O)[C@H](O)[C@H]2O)cc1` [Compound 35, p-nitrophenyl Gal-β1-6-Gal, reference compound], for which the “PI100 (percent inhibition)” value under setting [5] was 19.4 ± 1.6%.

For `OC[C@H]1O[C@H](Oc2ccccc2-c2ccccc2)[C@H](O)[C@@H](O)[C@H]1O` [Compound 113f1], the inhibition at 100 µM under setting [6] was found to be 19.2%.

With `OC[C@H]1O[C@@H](Oc2ccccc2-c2ccccc2)[C@H](O)[C@@H](O)[C@H]1O` [Compound 113f2], under setting [7], the inhibition at 1 µM came to 8.1%. In addition, the inhibition at 10 µM under setting [8] amounted to 31%. For the same compound, the inhibition at 100 µM under setting [6] came out at 91.1%.

On to `OC[C@H]1O[C@H](Oc2cccc(-c3ccccc3)c2)[C@H](O)[C@@H](O)[C@H]1O` [Compound 114af1], for which the inhibition at 100 µM under setting [6] stood at 45.6%.

As for `OC[C@H]1O[C@@H](Oc2cccc(-c3ccccc3)c2)[C@H](O)[C@@H](O)[C@H]1O` [Compound 114af2], the inhibition at 10 µM under setting [8] stood at 7.8%. Besides, under setting [6], the inhibition at 100 µM stood at 56.9%.

`OC[C@H]1O[C@H](Oc2ccc(-c3ccccc3)cc2)[C@H](O)[C@@H](O)[C@H]1O` [Compound 114bf1]: the inhibition at 10 µM under setting [8] is 22.6%. Under setting [6], the inhibition at 100 µM turned out to be 86.5%.

Consider `OC[C@H]1O[C@@H](Oc2ccc(-c3ccccc3)cc2)[C@H](O)[C@@H](O)[C@H]1O` [Compound 114bf2], for which the inhibition at 100 µM under setting [6] came to 30%.

For `OC[C@H]1O[C@H](Oc2cccc3ccccc23)[C@H](O)[C@@H](O)[C@H]1O` [Compound 115af1], the inhibition at 100 µM under setting [6] turned out to be 28.1%.

For the compound `OC[C@H]1O[C@@H](Oc2cccc3ccccc23)[C@H](O)[C@@H](O)[C@H]1O` [Compound 115af2], the inhibition at 100 µM under setting [6] came to 45.9%.

Regarding `COC(=O)c1cccc(-c2ccccc2O[C@H]2O[C@H](CO)[C@H](O)[C@H](O)[C@H]2O)c1` [Compound 116e], the inhibition at 100 µM under setting [6] was 13.1%.

Take `COC(=O)c1cccc(-c2ccccc2O[C@@H]2O[C@H](CO)[C@H](O)[C@H](O)[C@H]2O)c1` [Compound 116f]: under setting [7], the inhibition at 1 µM was 3.7%. Further, the inhibition at 10 µM under setting [8] was 22.4%. For the same compound, the inhibition at 100 µM under setting [6] is 86.6%.
